Consider 14 compounds from US12643887B2, “Heterocyclic derivatives with cardiomyocyte proliferation activity for treatment of heart diseases” (Tongji University, priority 2019, dated 2026).

Where only a bound is given, the exact number is not on record here.

The test system of assay [1] is Neonatal Rat Ventricular Myocytes (NRVMs). The assay can be described thus: Myocyte proliferation assay (EdU assay) in neonatal rat ventricular myocytes. Type of assay: cell-based. As to conditions: growth relative to blank myocyte growth without compound added; for Avg 1 uM (average myocyte proliferation): compound 1 uM; for Avg 3 uM (average myocyte proliferation): compound 3 uM; for Avg 10 uM (average myocyte proliferation): compound 10 uM. The method, boiled down:
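After 36 h compound exposure (1, 3 or 10 uM in 6% FBS/ITS DMEM, following 24 h low-serum culture), NRVMs were pulsed with EdU for 12 h. Proliferation scored by automated confocal imaging of EdU click chemistry, ab8295 immunostaining and DAPI nuclei in fixed cultures.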

Assay [2] addresses T1, human CLK1 (Homo sapiens, UniProt P49759).
T1 construct: Recombinant human CLK1 (129-end); GST (N); purchased SignalChem C57-11G; host or cells: Sf9 insect cells
The assay can be described thus: CLK1 enzyme assay (ADP-Glo). Type of assay: biochemical. As to conditions: ADP-Glo, ATP 10 μM; read-out: CLK1 IC50. The method in brief: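 GST-tagged CLK1 (129-end, Sf9-expressed) at 16 nM was preincubated with compound 30 min at 25 °C in 40 mM Tris pH 7.5, 20 mM MgCl2, 0.1 mg/ml BSA, 50 μM DTT. Reaction with 2 μM substrate and 10 μM ATP ran 60 min at 25 °C. ADP-Glo luminescence gave IC50 by four-parameter fit.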

T1 sequence (P49759 129-484 limits assumed): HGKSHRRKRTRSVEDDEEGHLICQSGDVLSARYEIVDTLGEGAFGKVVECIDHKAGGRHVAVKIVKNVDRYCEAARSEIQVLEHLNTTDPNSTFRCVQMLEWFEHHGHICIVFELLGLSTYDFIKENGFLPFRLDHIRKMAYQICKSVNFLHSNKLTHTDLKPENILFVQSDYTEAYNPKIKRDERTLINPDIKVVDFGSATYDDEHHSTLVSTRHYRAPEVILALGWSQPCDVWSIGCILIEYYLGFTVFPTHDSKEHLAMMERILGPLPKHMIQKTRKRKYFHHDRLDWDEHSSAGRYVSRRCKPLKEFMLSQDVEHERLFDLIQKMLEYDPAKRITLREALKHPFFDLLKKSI

In general, IC50 refers to the midpoint of a concentration-inhibition curve. In the case of `CN(C1=N/C(=C\c2ccc3c(c2)OCO3)C(=O)N1)c1cccnc1` [Example 18, (Z)-5-(benzo[d][1,3]dioxol-5-ylmethylene)-2-(methyl(pyridin-3-yl)amino)-3,5-dihydro-4H-imidazol-4-one], in assay [1], the “Avg 1 uM (average myocyte proliferation)” value is reported as “* (<10% growth relative to blank myocyte growth without compound added.)”, the “Avg 3 uM (average myocyte proliferation)” value is “* (<10% growth relative to blank myocyte growth without compound added.)” and the “Avg 10 uM (average myocyte proliferation)” value (from here on “Avg 10 uM”) is recorded as “** (10%-50%)”. The IC50 in assay [2] lay within 100 to 1000 nM.
Turning to `O=C1NC(Nc2ccccc2)=N/C1=C\c1ccc2scnc2c1` [Example 14, (Z)-5-(benzo[d]thiazol-5-ylmethylene)-2-(phenylamino)-3,5-dihydro-4H-imidazol-4-one], in assay [1], the “Avg 1 uM (average myocyte proliferation)” value is reported as “* (<10% growth relative to blank myocyte growth without compound added.)” and the “Avg 3 uM (average myocyte proliferation)” value is given as “** (10%-50%)”. In addition, the half-inhibitory concentration (IC50) in assay [2] is more than 10000 nM.
The matching figures for `COc1ccc(N(C)C2=N/C(=C\c3ccc4c(c3)OCO4)C(=O)N2)cc1` [Example 12, (Z)-5-(benzo[d][1,3]dioxol-5-ylmethylene)-2-((4-methoxyphenyl)(methyl)amino)-3,5-dihydro-4H-imidazol-4-one]: “* (<10% growth relative to blank myocyte growth without compound added.)”, “** (10%-50%)” and 100 to 1000 nM.
`O=C1NC(N(Cc2ccccc2)c2ccccc2)=N/C1=C\c1ccc2c(c1)OCO2` [Example 22, (Z)-5-(benzo[d][1,3]dioxol-5-ylmethylene)-2-(benzyl(phenyl)amino)-3,5-dihydro-4H-imidazol-4-one]: in assay [1], the “Avg 1 uM (average myocyte proliferation)” value was “** (10%-50%)”, the “Avg 3 uM (average myocyte proliferation)” value was “** (10%-50%)” and the “Avg 10 uM” value was “** (10%-50%)”. Besides, the IC50 in assay [2] was in the range of 1000 to 10000 nM.
For the compound `CN(CCN1CCOCC1)C1=N/C(=C\c2ccc3ncsc3c2)C(=O)N1` [Example 32, (Z)-5-(benzo[d]thiazol-6-ylmethylene)-2-(methyl(2-morpholinoethyl)amino)-3,5-dihydro-4H-imidazol-4-one], in assay [1], the “Avg 1 uM (average myocyte proliferation)” value is “* (<10% growth relative to blank myocyte growth without compound added.)” and the “Avg 3 uM (average myocyte proliferation)” value is on record as “* (<10% growth relative to blank myocyte growth without compound added.)”. Also, the IC50 in assay [2] was 100 to 1000 nM.
Take `CN(C1=N/C(=C\c2ccc3c(c2)OCO3)C(=O)N1)c1ccc2ncsc2c1` [Example 70, (Z)-5-(benzo[d][1,3]dioxol-5-ylmethylene)-2-(benzo[d]thiazol-6-yl(methyl)amino)-3,5-dihydro-4H-imidazol-4-one]: in assay [1], the “Avg 1 uM (average myocyte proliferation)” value was “** (10%-50%)” and the “Avg 3 uM (average myocyte proliferation)” value was “** (10%-50%)”. Besides, in assay [2], the IC50 is less than 100 nM.
`O=C1NC(N(CC2CC2)c2ccccc2)=N/C1=C\c1ccc2c(c1)OCO2` [Example 10, (Z)-5-(benzo[d][1,3]dioxol-5-ylmethylene)-2-((cyclopropylmethyl)(phenyl)amino)-3,5-dihydro-4H-imidazol-4-one]: in assay [1], the “Avg 1 uM (average myocyte proliferation)” value is listed as “** (10%-50%)”, the “Avg 3 uM (average myocyte proliferation)” value is recorded as “* (<10% growth relative to blank myocyte growth without compound added.)” and the “Avg 10 uM” value was “*** (>50%)”. Further, the IC50 in assay [2] was in the range of 100 to 1000 nM.
On to `O=C1/C(=C/c2ccc3c(c2)OCO3)N=C(N(Cc2ccccc2)c2ccccc2)N1Cc1ccccc1` [Example 2, (Z)-5-(benzo[d][1,3]dioxol-5-ylmethylene)-3-benzyl-2-(benzyl(phenyl)amino)-3,5-dihydro-4H-imidazol-4-one], for which, in assay [1], the “Avg 1 uM (average myocyte proliferation)” value is recorded as “* (<10% growth relative to blank myocyte growth without compound added.)”, the “Avg 3 uM (average myocyte proliferation)” value is reported as “* (<10% growth relative to blank myocyte growth without compound added.)” and the “Avg 10 uM” value is recorded as “*** (>50%)”. In addition, in assay [2], the IC50 lay in the range of 1000 to 10000 nM.
Take `O=C1NC(Nc2ccc3c(c2)OCCO3)=N/C1=C\c1ccc2ncsc2c1` [Example 81, (Z)-5-(benzo[d]thiazol-6-ylmethylene)-2-((2,3-dihydrobenzo[b][1,4]dioxin-6-yl)amino)-3,5-dihydro-4H-imidazol-4-one]: in assay [1], the “Avg 1 uM (average myocyte proliferation)” value is on record as “* (<10% growth relative to blank myocyte growth without compound added.)” and the “Avg 3 uM (average myocyte proliferation)” value is reported as “* (<10% growth relative to blank myocyte growth without compound added.)”. In assay [2], the IC50 was less than 100 nM.
Regarding `CN(C1=N/C(=C\c2ccc3c(c2)OC(F)(F)O3)C(=O)N1)c1ccccc1` [Example 17, (Z)-5-((2,2-difluorobenzo[d][1,3]dioxol-5-yl)methylene)-2-(methyl(phenyl)amino)-3,5-dihydro-4H-imidazol-4-one], in assay [1], the “Avg 1 uM (average myocyte proliferation)” value is on record as “* (<10% growth relative to blank myocyte growth without compound added.)”, the “Avg 3 uM (average myocyte proliferation)” value was “* (<10% growth relative to blank myocyte growth without compound added.)” and the “Avg 10 uM” value is “* (<10% growth relative to blank myocyte growth without compound added.)”. The IC50 in assay [2] was more than 10000 nM.
Regarding `COc1ccccc1N(C)C1=N/C(=C\c2ccc3c(c2)OCO3)C(=O)N1` [Example 21, (Z)-5-(benzo[d][1,3]dioxol-5-ylmethylene)-2-((2-methoxyphenyl)(methyl)amino)-3,5-dihydro-4H-imidazol-4-one], in assay [1], the “Avg 1 uM (average myocyte proliferation)” value is given as “*** (>50%)”, the “Avg 3 uM (average myocyte proliferation)” value is given as “*** (>50%)” and the “Avg 10 uM” value is “** (10%-50%)”. In assay [2], the IC50 was in the range of 1000 to 10000 nM.
Take `Cn1ncc2ccc(/C=C3\N=C(Nc4ccccc4)NC3=O)cc21` [Example 79, 5-((1-methyl-1H-indazol-6-yl)methylene)-2-(phenylamino)-3,5-dihydro-4H-imidazol-4-one]: in assay [1], the “Avg 1 uM (average myocyte proliferation)” value was “* (<10% growth relative to blank myocyte growth without compound added.)” and the “Avg 3 uM (average myocyte proliferation)” value is “* (<10% growth relative to blank myocyte growth without compound added.)”. The half-inhibitory concentration (IC50) in assay [2] was more than 10000 nM.
Regarding `CN(C1=N/C(=C\c2ccc3c(c2)OCO3)C(=O)N1)c1ccc(N)cc1` [Example 37, (Z)-2-((4-aminophenyl)(methyl)amino)-5-(benzo[d][1,3]dioxol-5-ylmethylene)-3,5-dihydro-4H-imidazol-4-one], in assay [1], the “Avg 1 uM (average myocyte proliferation)” value was “*** (>50%)”, the “Avg 3 uM (average myocyte proliferation)” value is on record as “** (10%-50%)” and the “Avg 10 uM” value is listed as “** (10%-50%)”. Besides, the IC50 in assay [2] is 1000 to 10000 nM.
With `O=C1NC(Nc2ccccc2)=N/C1=C\c1ccc2occc2c1` [Example 52, (Z)-5-(benzofuran-5-ylmethylene)-2-(phenylamino)-3,5-dihydro-4H-imidazol-4-one], in assay [1], the “Avg 1 uM (average myocyte proliferation)” value is on record as “** (10%-50%)”, the “Avg 3 uM (average myocyte proliferation)” value was “** (10%-50%)” and the “Avg 10 uM” value is “** (10%-50%)”. Besides, in assay [2], the IC50 lay in the range of 100 to 1000 nM.
